These results are taken from ChEMBL document CHEMBL1141299, “Hologram QSAR model for the prediction of human oral bioavailability” (Bioorg Med Chem, 2007).

Structures are written as SMILES.

One series is described as follows: Oral bioavailability in human. As to conditions: in vivo.
With `O=C1CN=C(c2ccccc2)c2cc([N+](=O)[O-])ccc2N1` [NITRAZEPAM], the bioavailability was 78%. `CC[C@@H](CO)NC(=O)[C@@H]1C=C2c3cccc4c3c(cn4C)C[C@H]2N(C)C1` [METHYSERGIDE] displayed a bioavailability of 13%. Still for that read-out and setting: then `C=CCN1CC[C@]23c4c5ccc(O)c4O[C@H]2C(=O)CC[C@@]3(O)[C@H]1C5` [NALOXONE], with 2%; and `CCC(=O)C(C[C@H](C)N(C)C)(c1ccccc1)c1ccccc1` [ESMETHADONE], with 92%; and `O=C1Nc2ccc(Cl)cc2C(c2ccccc2Cl)=N[C@@H]1O` [(R)-LORAZEPAM], with 93%. For `Cc1ccnc2c1NC(=O)c1cccnc1N2C1CC1` [NEVIRAPINE], the bioavailability came to 93%. Same read-out and setting: then `NS(=O)(=O)c1cc([C@]2(O)NC(=O)c3ccccc32)ccc1Cl` [(R)-CHLORTHALIDONE], with 64%; and `Cn1c(=O)c2[nH]cnc2n(C)c1=O.O` [THEOPHYLLINE], with 98.8%; and `CCC1(c2ccccc2)C(=O)NC(=O)NC1=O` [PHENOBARBITAL], with 96%. Still for that read-out and setting: then `COc1cccc([C@@]2(O)CCCC[C@@H]2CN(C)C)c1` [TRAMADOL], with 75%; and `C[N+]1(CC2CC2)[C@@H]2C[C@@H](OC(=O)[C@H](CO)c3ccccc3)C[C@H]1[C@@H]1O[C@@H]12.[Br-]` (stereo partly specified) [CIMETROPIUM BROMIDE], with 2%; and `CCC(C(N)=O)(C(N)=O)c1ccccc1` [PHENYLETHYLMALONAMIDE], with 91%. Same read-out and setting: then `COc1c(N2C[C@@H]3CCCN[C@@H]3C2)c(F)cc2c(=O)c(C(=O)O)cn(C3CC3)c12` [MOXIFLOXACIN], with 90%. Consider `C[C@@H](N)Cc1cccc(C(F)(F)F)c1`, for which the bioavailability stood at 85%. Still for that read-out and setting: then `COc1ccc2c3c1O[C@H]1[C@@H](O)C=C[C@H]4[C@@H](C2)N(C)CC[C@@]341` [CODEINE], with 55%; and `CCN(C(C)=O)c1cccc(-c2ccnc3c(C#N)cnn23)c1` [ZALEPLON], with 30%.

Regarding `CCN[C@@H](C)Cc1cccc(C(F)(F)F)c1` [DEXFENFLURAMINE], the bioavailability stood at 89%. As for `COc1ccc([C@@H](CN(C)C)C2(O)CCCCC2)cc1` [(S)-VENLAFAXINE], the bioavailability amounted to 45%. `O=C(O[C@H]1C[C@H]2CC[C@@H](C1)[N+]21CCCC1)C(O)(c1ccccc1)c1ccccc1` [TROSPIUM] displayed a bioavailability of 9.6%.

In turn, `CC[C@H](OC(C)=O)C(C[C@H](C)N(C)C)(c1ccccc1)c1ccccc1` [LEVOMETHADYL ACETATE] came in with a bioavailability of 47%. Still for that read-out and setting: then `O=C(O)CCCc1ccc(N(CCCl)CCCl)cc1` [CHLORAMBUCIL], with 87%; and `CC[C@@]1(c2ccccc2)C(=O)NC(=O)N(C)C1=O` [(R)-METHYLPHENOBARBITAL], with 73%; and `O=C1CC[C@@]2(O)[C@H]3Cc4ccc(O)c5c4[C@@]2(CCN3CC2CC2)[C@H]1O5` [NALTREXONE], with 20%.

On to `CN1CCN(C(=O)O[C@H]2c3nccnc3C(=O)N2c2ccc(Cl)cn2)CC1` [ESZOPICLONE], for which the bioavailability was 80%. The same measure, in the same setting: then `NC(=O)c1ncn([C@@H]2O[C@H](CO)[C@@H](O)[C@H]2O)n1` [RIBAVIRIN], with 64%. The same measure, in the same setting: then `C[C@H](N)Cc1cccc(C(F)(F)F)c1` [NORDEXFENFLURAMINE], with 85%; and `CC(C)=CCN1CC[C@]2(C)c3cc(O)ccc3C[C@H]1[C@H]2C` [(+)-PENTAZOCINE], with 18%.

`CN1C(=O)[C@H](O)N=C(c2ccccc2Cl)c2cc(Cl)ccc21` [(S)-LORMETAZEPAM]: the bioavailability is 75%.

Still in this series, the particulars now being: in vivo, F.
With `C[C@H]1C[C@@H]2[C@H]([C@@H](O)C[C@@]3(C)[C@H]2CC[C@]3(O)C(=O)CO)[C@@]2(C)C=CC(=O)C=C12` [METHYLPREDNISOLONE], the bioavailability was found to be 82%. For `CC[C@@]1(O)C(=O)OCc2c1cc1n(c2=O)Cc2cc3c(CN(C)C)c(O)ccc3nc2-1` [TOPOTECAN], the bioavailability was found to be 32%.

The molecule `CN(C)CCc1c[nH]c2ccc(CS(=O)(=O)N3CCCC3)cc12` [ALMOTRIPTAN] yielded a bioavailability of 70%.

In the case of `C[C@@H]1C[C@H]2[C@@H]3C[C@H](F)C4=CC(=O)C=C[C@]4(C)[C@H]3[C@@H](O)C[C@]2(C)[C@H]1C(=O)CO` [FLUOCORTOLONE], the bioavailability worked out at 83.5%. On the same count and under the same terms, then `COc1ccnc(C[S+]([O-])c2nc3ccc(OC(F)F)cc3[nH]2)c1OC` (stereo unspecified) [PANTOPRAZOLE], with 77%. `COc1cc2nc(N3CCN(C(=O)c4ccco4)CC3)nc(N)c2cc1OC` [PRAZOSIN]: the bioavailability amounted to 68%.

In turn, `CC(C)(C)NC[C@@H](O)c1ccc(O)c(CO)c1` [(S)-ALBUTEROL] came in with a bioavailability of 71%. Turning to `CCOc1cc(CC(=O)N[C@@H](CC(C)C)c2ccccc2N2CCCCC2)ccc1C(=O)O` [REPAGLINIDE], the bioavailability turned out to be 56%. The molecule `Cc1onc(-c2ccccc2Cl)c1C(=O)N[C@@H]1C(=O)N2[C@@H]1SC(C)(C)[C@@H]2C(=O)O` [CLOXACILLIN] came in with a bioavailability of 37%. Take `CCN1C[C@@H](CCN2CCOCC2)C(c2ccccc2)(c2ccccc2)C1=O` [(S)-DOXAPRAM]: the bioavailability was 61%. On the same count and under the same terms, then `CCOc1nc2cccc(C(=O)O)c2n1Cc1ccc(-c2ccccc2-c2nnn[nH]2)cc1`, with 15%; and `CCc1cccc2cc([C@@H](O)CNC(C)(C)C)oc12` [(S)-BUFURALOL], with 46%. Molecule `CCCCC(=O)O[C@H]1CC[C@H]2[C@@H]3CCc4cc(O)ccc4[C@H]3CC[C@]12C` [ESTRADIOL VALERATE] returned a bioavailability of 3%. Still for that read-out and setting: then `CNCC[C@@H](Oc1ccccc1C)c1ccccc1` [ATOMOXETINE], with 63%. On the same count and under the same terms, then `CCC1(c2ccccc2)C(=O)NCNC1=O` [PRIMIDONE], with 92%; and `CC(C)(O)c1ccccc1CC[C@@H](SCC1(CC(=O)O)CC1)c1cccc(/C=C/c2ccc3ccc(Cl)cc3n2)c1` [MONTELUKAST], with 73%.

As for `C[C@H]1O[C@@H](O[C@H]2[C@@H](O)C[C@H](O[C@H]3[C@@H](O)C[C@H](O[C@H]4CC[C@@]5(C)[C@H](CC[C@@H]6[C@@H]5C[C@@H](O)[C@]5(C)[C@@H](C7=CC(=O)OC7)CC[C@]65O)C4)O[C@@H]3C)O[C@@H]2C)C[C@H](O)[C@@H]1O` [DIGOXIN], the bioavailability was 95%. `CC(C)COC[C@@H](CN(Cc1ccccc1)c1ccccc1)N1CCCC1` had a bioavailability of 60%. `CC(C)[C@H](N)C(=O)OC[C@H](CO)OCn1cnc2c(=O)nc(N)[nH]c21` [(S)-VALGANCICLOVIR] came in with a bioavailability of 59.4%.

In turn, `CC(C)(C#N)c1cc(Cn2cncn2)cc(C(C)(C)C#N)c1` [ANASTROZOLE] registered a bioavailability of 84%. `CC(C)NC[C@H](O)COc1ccc(OCCOCC2CC2)cc1` came in with a bioavailability of 100%. The molecule `Cc1cn([C@H]2C[C@H](N=[N+]=[N-])[C@@H](CO)O2)c(=O)[nH]c1=O` [ZIDOVUDINE] showed a bioavailability of 64%. Still for that read-out and setting: then `C[C@@H](CN1c2ccccc2Sc2ccccc21)N(C)C` [(S)-PROMETHAZINE], with 25%. For the molecule `CCC(=O)c1ccc2c(c1)N(C[C@@H](C)N(C)C)c1ccccc1S2` [(R)-PROPIOMAZINE], the bioavailability amounted to 33%. Still for that read-out and setting: then `O=C1C(O)=C([C@H]2CC[C@H](c3ccc(Cl)cc3)CC2)C(=O)c2ccccc21` [ATOVAQUONE], with 23%; and `CC[C@H]1OC(=O)[C@H](C)C(=O)[C@H](C)[C@@H](O[C@@H]2O[C@H](C)C[C@H](N(C)C)[C@H]2O)[C@](C)(OC)C[C@@H](C)C(=O)[C@H](C)[C@H]2N(CCCCn3cnc(-c4cccnc4)c3)C(=O)O[C@]12C` [TELITHROMYCIN], with 57%.

Molecule `Cc1cc2c(OC[C@@H](O)CNC(C)C)cccc2[nH]1` [(S)-MEPINDOLOL] showed a bioavailability of 82%. Same read-out and setting: then `Cc1nccn1C[C@@H]1CCc2c(c3ccccc3n2C)C1=O` [(S)-ONDANSETRON], with 62%; and `COc1c(C)c2c(c(O)c1C/C=C(\C)CCC(=O)O)C(=O)OC2` [MYCOPHENOLIC ACID], with 72%; and `CCOC(=O)C(C)(C)Oc1ccc(Cl)cc1` [CLOFIBRATE], with 95%. For `Nc1nc(=O)n([C@@H]2CS[C@H](CO)O2)cc1F` [EMTRICITABINE], the bioavailability is 93%.

Regarding `CC1(C)S[C@@H]2[C@H](NC(=O)Cc3ccccc3)C(=O)N2[C@H]1C(=O)O` [PENICILLIN G], the bioavailability is 22.5%.

`CCCCCCCCCCCCCCCC(=O)OC[C@@H](NC(=O)C(Cl)Cl)[C@H](O)c1ccc([N+](=O)[O-])cc1` [CHLORAMPHENICOL PALMITATE] returned a bioavailability of 80%. Still for that read-out and setting: then `CN(Cc1cnc2nc(N)nc(N)c2n1)c1ccc(C(=O)N[C@@H](CCC(=O)O)C(=O)O)cc1` [METHOTREXATE], with 70%; and `CCCc1cc(=O)[nH]c(=S)[nH]1` [PROPYLTHIOURACIL], with 78%.

In turn, `COc1ccc(OC)c([C@@H](O)CNC(=O)CN)c1` [(R)-MIDODRINE] had a bioavailability of 93%. Molecule `CO/N=C1\CN(c2nc3c(cc2F)c(=O)c(C(=O)O)cn3C2CC2)C[C@@H]1CN` gave a bioavailability of 71%. The same measure, in the same setting: then `CO[C@H]1/C=C/O[C@@]2(C)Oc3c(C)c(O)c4c(O)c(c(/C=N/N5CCN(C)CC5)c(O)c4c3C2=O)NC(=O)/C(C)=C\C=C\[C@H](C)[C@H](O)[C@@H](C)[C@@H](O)[C@@H](C)[C@H](OC(C)=O)[C@@H]1C` [RIFAMPIN], with 88.8%.

On to `C[C@]12C=CC(=O)C=C1CC[C@@H]1[C@@H]2C(=O)C[C@@]2(C)[C@H]1CC[C@]2(O)C(=O)CO` [PREDNISONE], for which the bioavailability was found to be 80%.

For the molecule `C=C1c2cccc(O)c2C(=O)C2=C(O)[C@]3(O)C(=O)C(C(N)=O)=C(O)[C@@H](N(C)C)[C@@H]3[C@@H](O)[C@H]12` [METHACYCLINE], the bioavailability amounted to 58%. Still for that read-out and setting: then `COc1cc(Cc2cnc(N)nc2N)cc(OC)c1OC` [TRIMETHOPRIM], with 63%. Same read-out and setting: then `CC(=O)[C@]1(O)Cc2c(O)c3c(c(O)c2[C@@H](O[C@H]2C[C@H](N)[C@H](O)[C@H](C)O2)C1)C(=O)c1ccccc1C3=O` [IDARUBICIN], with 28%; and `CC(C)NC[C@H](O)c1ccc(NS(C)(=O)=O)cc1`, with 60%.

Usually bioavailability stands for dose-corrected exposure relative to a reference, in per cent.
